Our source for the Activity and inhibition values is ChEMBL document CHEMBL5620439, “Talaromides A-C, Bioactive Cyclic Heptapeptides from Talaromyces siglerae Isolated from a Marine Sponge” (2024).

Calls of active or inactive are those of the source. The rule behind the calls is not given here.

The test system of one assay is Salmonella typhimurium. The assay is described as follows: Antimicrobial activity against Salmonella typhimurium 2515. The note with it: Salmonella enterica subsp. enterica serovar Typhimurium. In kind it is functional, organism-based.
Assay [1] concerns Staphylococcus aureus. Kind of assay: Antimicrobial activity against methicillin sensitive Staphylococcus aureus CCARM 0205. The format is functional, organism-based.
The test system of assay [2] is Staphylococcus aureus. The assay is described as follows: Antimicrobial activity against methicillin sensitive Staphylococcus aureus CCARM 3090. In kind it is functional, organism-based.
Assay [3] relates to PANC-1. Kind of assay: Antimetastatic activity in human PANC-1 cells assessed as decrease in migration at 80 uM incubated for 48 hrs by scratch wound healing assay relative to control. The format is functional. More on the design: scale not given: the % may be the effect or the level left.
For assay [4], the system named is Staphylococcus aureus. The assay is described as follows: Antimicrobial activity against methicillin sensitive Staphylococcus aureus CCARM 0204. The format is functional, organism-based.
Assay [5] relates to PANC-1. Kind of assay: Cytotoxicity against human PANC-1 cells assessed as reduction in cell viability at 10 to 100 uM incubated for 72 hrs by MTT assay. The format is functional, cell-based. The note with it: dose 10-100 µM. Background: Tetrazolium assays rely on reduction of a dye to a coloured formazan, in cell work by metabolically active cells.
For assay [6], the system named is Staphylococcus aureus. Kind of assay: Antimicrobial activity against methicillin sensitive Staphylococcus aureus CCARM 3635. The format is functional, organism-based.
The test system of a further assay is Bacillus subtilis. The assay is described as follows: Antimicrobial activity against Bacillus subtilis 1021. The format is functional, organism-based.
Another assay deals with RAW264.7. Kind of assay: Inhibition of nitric oxide production in LPS-activated mouse RAW264.7 cells. The format is functional, cell-based.
For the next assay, the system named is Escherichia coli. The assay is described as follows: Antimicrobial activity against Escherichia coli 2441. The format is functional, organism-based.
The subject of assay [7] is Staphylococcus epidermidis. Kind of assay: Antimicrobial activity against Staphylococcus epidermidis 1917. The format is functional, organism-based.

On to `CC[C@@H](C)[C@H]1NC(=O)[C@H](C)NC(=O)[C@H]([C@@H](C)O)NC(=O)[C@@H](Cc2ccc(O)cc2)NC(=O)[C@@H](C(C)C)NC(=O)c2ccccc2NC(=O)[C@@H]2CCCN2C1=O`, for which the outcome in the assay on Salmonella typhimurium, in the assay on Staphylococcus aureus [1], in the assay with Staphylococcus aureus [2], with Staphylococcus aureus [4], in the assay on PANC-1 [5] and with Staphylococcus aureus [6] was inactive. In addition, the result (with Bacillus subtilis; in the assay on Escherichia coli; in [7]) was inactive. Further, the Activity with PANC-1 [3] is 52%. The inhibition result in the assay with RAW264.7 is “inactive”.
For the compound `CC[C@@H](C)[C@H]1NC(=O)c2ccccc2NC(=O)[C@@H]2CCCN2C(=O)[C@@H]([C@H](C)CC)NC(=O)[C@H](C)NC(=O)[C@H]([C@@H](C)O)NC(=O)[C@@H](Cc2ccc(O)cc2)NC1=O`, the result with Salmonella typhimurium, in the assay on Staphylococcus aureus [1], in the assay on Staphylococcus aureus [2], with Staphylococcus aureus [4], in the assay with PANC-1 [5] and in the assay on Staphylococcus aureus [6] was inactive. In addition, the result (in the assay on Bacillus subtilis; in the assay on Escherichia coli; in assay [7]) was inactive. Also, the Activity in the assay with PANC-1 [3] was 48%. Moreover, in the assay on RAW264.7, the inhibition entry was “inactive”.
`CC[C@@H](C)[C@H]1NC(=O)c2ccccc2NC(=O)[C@@H]2CCCN2C(=O)[C@@H](CC(C)C)NC(=O)[C@H](C)NC(=O)[C@H]([C@@H](C)O)NC(=O)[C@@H](Cc2ccc(O)cc2)NC1=O`: the result with Salmonella typhimurium, with Staphylococcus aureus [1], in the assay on Staphylococcus aureus [2], in the assay with Staphylococcus aureus [4], in the assay with PANC-1 [5] and in the assay on Staphylococcus aureus [6] was inactive. The outcome (in the assay with Bacillus subtilis; in the assay with Escherichia coli; in assay [7]) was inactive. Also, the inhibition result with RAW264.7 is “inactive”.
